Experimental data published in patent publication US8097282B2, “Methods of administering liquid droplet aerosols of nanoparticulate drugs” (Alkermes Pharma Ireland Limited, priority 1995, dated 2012).

Key:
[1] = tested on: rabbit's pulmonary region; assay: Computed tomography (CT) after administration of ultrasonically nebulized formulation to an intubated anesthetized rabbit; format: in vivo; conditions: ultrasonic nebulizer, several minutes, 30% suspension in 6% F108
Method: (§1) In this example, a suspension of WIN 68209 (30%) in aqueous F108 surfactant (6%) was prepared by conventional roller milling techniques (jar mill, zirconium silicate beads, 7 days milling time). The mean particle size of the resultant distribution was 196 nm. The formulation was administered to an anesthetized rabbit as follows: Several mL of formulation was placed in an ultrasonic nebulizer (DeVilbiss AeroSonic™) which was connected in-line with a mechanical ventilator, terminating in a suitable endotracheal tube. The rabbit was then intubated and administered the nebulized formulation for several minutes.

[2] = Mean particle size of roller-milled WIN 68209 suspension; format: physicochemical; conditions: 30% suspension in aqueous F108 surfactant (6%), 7 days roller milling
Method: as §1

[3] = format: physicochemical
Method: Nanoparticle Preparation and Characterization. Nanoparticles were prepared by media milling a suspension of 5% beclomethasone diproprionate in an aqueous solutions of PVA. Thus, the PVA was the surface modifier. The resulting particle size distribution was determined by dynamic light scattering. The particle size distribution was periodically monitored throughout the course of the study. […] In addition, particle size of the diluted dispersions remained constant for at least the duration of the experiment.

particle size distribution ([3]; nanoparticles in 2.5% polyvinyl alcohol) [micrometer]	SMILES	CT scans of pulmonary region after nebulized administration [1]	mean particle size [2] [nm]	chemical stability [3]	particle size stability [3]
–	CCOC(=O)C=C(COC(=O)c1c(I)c(NC(C)=O)c(I)c(NC(C)=O)c1I)OCC [WIN 68209, benzoic acid, 3,5-bis(acetylamino)-2,4,6triodo-, 4(ethyl-3-ethoxy-2-butenoate) ester]	showed the presence of radiopaque contrast agent in the region	196	–	–
0.26±0.13	CCC(=O)OCC(=O)[C@@]1(OC(=O)CC)[C@@H](C)C[C@H]2[C@@H]3CCC4=CC(=O)C=C[C@]4(C)[C@@]3(Cl)[C@@H](O)C[C@@]21C.O [beclomethasone diproprionate, Beclomethasone diproprionate]	–	–	neither was there any evidence of chemical instability	remained constant throughout the course of the study
